According to PubChem BioAssay AID2060896 (Molecular Pharmacology Branch, DTP, NCI, 2025):

Tested on: 941728-121-R-J1-PDC complex spheroid viability
Test: Anticancer human tumor 941728-121-R-J1-PDC patient-derived lung adenocarcinoma cell line growth inhibition [RAS]
Settings: for IC50: curve of first compound; for viability, T/C: stronger effect = lower value
In short: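 Agents were tested in combination matrices in half-log decrements from a top concentration at or near clinical Cmax (10 microM if undetermined). Targets were multi-cell spheroids of tumour lines plus HUVEC and MSC stromal cells.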

[1] = second compound 0.000949 µM, first compound 0.00316 µM
[2] = second compound 0.000949 µM, first compound 0.01 µM
[3] = second compound 0.000949 µM, first compound 0.0316 µM
[4] = second compound 0.000949 µM, first compound 0.1 µM
[5] = second compound 0.000949 µM, first compound 0.316 µM
[6] = second compound 0.000949 µM, first compound 1 µM
[7] = second compound 0.003 µM, first compound 0.00316 µM
[8] = second compound 0.003 µM, first compound 0.01 µM
[9] = second compound 0.003 µM, first compound 0.0316 µM
[10] = second compound 0.003 µM, first compound 0.1 µM
[11] = second compound 0.003 µM, first compound 0.316 µM
[12] = second compound 0.003 µM, first compound 1 µM
[13] = second compound 0.00949 µM, first compound 0.00316 µM
[14] = second compound 0.00949 µM, first compound 0.01 µM
[15] = second compound 0.00949 µM, first compound 0.0316 µM
[16] = second compound 0.00949 µM, first compound 0.1 µM
[17] = second compound 0.00949 µM, first compound 0.316 µM
[18] = second compound 0.00949 µM, first compound 1 µM
[19] = second compound 0.03 µM, first compound 0.00316 µM
[20] = second compound 0.03 µM, first compound 0.01 µM
[21] = second compound 0.03 µM, first compound 0.0316 µM
[22] = second compound 0.03 µM, first compound 0.1 µM
[23] = second compound 0.03 µM, first compound 0.316 µM
[24] = second compound 0.03 µM, first compound 1 µM
[25] = second compound 0.0949 µM, first compound 0.00316 µM
[26] = second compound 0.0949 µM, first compound 0.01 µM
[27] = second compound 0.0949 µM, first compound 0.0316 µM
[28] = second compound 0.0949 µM, first compound 0.1 µM
[29] = second compound 0.0949 µM, first compound 0.316 µM
[30] = second compound 0.0949 µM, first compound 1 µM
[31] = second compound 0.3 µM, first compound 0.00316 µM
[32] = second compound 0.3 µM, first compound 0.01 µM
[33] = second compound 0.3 µM, first compound 0.0316 µM
[34] = second compound 0.3 µM, first compound 0.1 µM
[35] = second compound 0.3 µM, first compound 0.316 µM
[36] = second compound 0.3 µM, first compound 1 µM
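Note: spheroids exposed to compounds for 7 days before readout.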
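Throughout, for viability, T/C: 100% = DMSO vehicle control viability.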

C=CC(=O)N1CCN(c2nc(OCC3CCCN3C)nc3c(F)c(-c4nc(N)cc(C)c4C(F)(F)F)c(Cl)cc23)C(C)C1 (stereo unspecified) + CCn1c(-c2cc(N3CCN(C)CC3)cnc2C(C)OC)c2c3cc(ccc31)-c1csc(n1)CC(NC(=O)C1CC1C)C(=O)N1CCCC(N1)C(=O)OCC(C)(C)C2
IC50 (second compound 0.000949 µM): < 3.16 nM | IC50 (second compound 0.003 µM): < 3.16 nM | IC50 (second compound 0.00949 µM): < 3.16 nM | IC50 (second compound 0.03 µM): < 3.16 nM | IC50 (second compound 0.0949 µM): < 3.16 nM | IC50 (second compound 0.3 µM): < 3.16 nM | viability, T/C [1]: 20.1% | viability, T/C [2]: 19.7% | viability, T/C [3]: 14.8% | viability, T/C [4]: 18.7% | viability, T/C [5]: 20.2% | viability, T/C [6]: 16.2% | viability, T/C [7]: 16.9% | viability, T/C [8]: 15.7% | viability, T/C [9]: 14.5% | viability, T/C [10]: 17.2% | viability, T/C [11]: 19.6% | viability, T/C [12]: 14.6% | viability, T/C [13]: 17.3% | viability, T/C [14]: 16.4% | viability, T/C [15]: 17.7% | viability, T/C [16]: 18% | viability, T/C [17]: 15.6% | viability, T/C [18]: 14.8% | viability, T/C [19]: 17.7% | viability, T/C [20]: 18.3% | viability, T/C [21]: 17.5% | viability, T/C [22]: 16.3% | viability, T/C [23]: 14% | viability, T/C [24]: 17.8% | viability, T/C [25]: 15.6% | viability, T/C [26]: 16.7% | viability, T/C [27]: 16.5% | viability, T/C [28]: 17.7% | viability, T/C [29]: 14.9% | viability, T/C [30]: 19.4% | viability, T/C [31]: 17% | viability, T/C [32]: 17.2% | viability, T/C [33]: 17.1% | viability, T/C [34]: 14.5% | viability, T/C [35]: 18.5% | viability, T/C [36]: 18.2%

CC1(C)CCC(Nc2ncc(C(F)(F)F)c(-c3c[nH]c4c(P(C)(C)=O)c(C#N)ccc34)n2)CN1 (stereo unspecified) + CCn1c(-c2cc(N3CCN(C)CC3)cnc2C(C)OC)c2c3cc(ccc31)-c1csc(n1)CC(NC(=O)C1CC1C)C(=O)N1CCCC(N1)C(=O)OCC(C)(C)C2
IC50 (second compound 0.000949 µM): < 0.949 nM | IC50 (second compound 0.003 µM): < 0.949 nM | IC50 (second compound 0.00949 µM): < 0.949 nM | IC50 (second compound 0.03 µM): < 0.949 nM | IC50 (second compound 0.0949 µM): < 0.949 nM | IC50 (second compound 0.3 µM): < 0.949 nM | viability, T/C (second compound 0.000949 µM, first compound 0.000949 µM): 26.8% | viability, T/C (second compound 0.000949 µM, first compound 0.003 µM): 28.2% | viability, T/C (second compound 0.000949 µM, first compound 0.00949 µM): 23.5% | viability, T/C (second compound 0.000949 µM, first compound 0.03 µM): 27.3% | viability, T/C (second compound 0.000949 µM, first compound 0.0949 µM): 32.7% | viability, T/C (second compound 0.000949 µM, first compound 0.3 µM): 24.8% | viability, T/C (second compound 0.003 µM, first compound 0.000949 µM): 19.8% | viability, T/C (second compound 0.003 µM, first compound 0.003 µM): 18.5% | viability, T/C (second compound 0.003 µM, first compound 0.00949 µM): 16.6% | viability, T/C (second compound 0.003 µM, first compound 0.03 µM): 22.6% | viability, T/C (second compound 0.003 µM, first compound 0.0949 µM): 19.5% | viability, T/C (second compound 0.003 µM, first compound 0.3 µM): 17.1% | viability, T/C (second compound 0.00949 µM, first compound 0.000949 µM): 14% | viability, T/C (second compound 0.00949 µM, first compound 0.003 µM): 10.3% | viability, T/C (second compound 0.00949 µM, first compound 0.00949 µM): 11.3% | viability, T/C (second compound 0.00949 µM, first compound 0.03 µM): 14.4% | viability, T/C (second compound 0.00949 µM, first compound 0.0949 µM): 12.3% | viability, T/C (second compound 0.00949 µM, first compound 0.3 µM): 12.2% | viability, T/C (second compound 0.03 µM, first compound 0.000949 µM): 10.8% | viability, T/C (second compound 0.03 µM, first compound 0.003 µM): 9.52% | viability, T/C (second compound 0.03 µM, first compound 0.00949 µM): 9.8% | viability, T/C (second compound 0.03 µM, first compound 0.03 µM): 10.9% | viability, T/C (second compound 0.03 µM, first compound 0.0949 µM): 9.73% | viability, T/C (second compound 0.03 µM, first compound 0.3 µM): 11.7% | viability, T/C (second compound 0.0949 µM, first compound 0.000949 µM): 9.88% | viability, T/C (second compound 0.0949 µM, first compound 0.003 µM): 9.37% | viability, T/C (second compound 0.0949 µM, first compound 0.00949 µM): 10% | viability, T/C (second compound 0.0949 µM, first compound 0.03 µM): 11.1% | viability, T/C (second compound 0.0949 µM, first compound 0.0949 µM): 8.77% | viability, T/C (second compound 0.0949 µM, first compound 0.3 µM): 11.9% | viability, T/C (second compound 0.3 µM, first compound 0.000949 µM): 9.86% | viability, T/C (second compound 0.3 µM, first compound 0.003 µM): 9.92% | viability, T/C (second compound 0.3 µM, first compound 0.00949 µM): 9.46% | viability, T/C (second compound 0.3 µM, first compound 0.03 µM): 8.06% | viability, T/C (second compound 0.3 µM, first compound 0.0949 µM): 9.53% | viability, T/C (second compound 0.3 µM, first compound 0.3 µM): 10.4%

C=CC(=O)Nc1cc(Nc2nccc(-c3cn(C)c4ccccc34)n2)c(OC)cc1N(C)CCN(C)C + CCn1c(-c2cccnc2C(C)OC)c2c3cc(ccc31)N1CCOC(CC(NC(=O)C(C(C)C)N(C)C(=O)C3(F)CCN(C(=O)C#CC(C)(C)N(C)C)CC3)C(=O)N3CCCC(N3)C(=O)OCC(C)(C)C2)C1
IC50 (second compound 0.000949 µM): < 3.16 nM | IC50 (second compound 0.003 µM): 382 nM | IC50 (second compound 0.00949 µM): < 3.16 nM | IC50 (second compound 0.03 µM): < 3.16 nM | IC50 (second compound 0.0949 µM): < 3.16 nM | IC50 (second compound 0.3 µM): < 3.16 nM | viability, T/C [1]: 24.4% | viability, T/C [2]: 22.9% | viability, T/C [3]: 16.2% | viability, T/C [4]: 20.1% | viability, T/C [5]: 19.2% | viability, T/C [6]: 12.8% | viability, T/C [7]: 89.7% | viability, T/C [8]: 91.4% | viability, T/C [9]: 69.4% | viability, T/C [10]: 69.9% | viability, T/C [11]: 53.1% | viability, T/C [12]: 35.4% | viability, T/C [13]: 22.7% | viability, T/C [14]: 18.3% | viability, T/C [15]: 20.5% | viability, T/C [16]: 19.2% | viability, T/C [17]: 16.1% | viability, T/C [18]: 12.8% | viability, T/C [19]: 25.8% | viability, T/C [20]: 20.8% | viability, T/C [21]: 16.8% | viability, T/C [22]: 16.9% | viability, T/C [23]: 14.2% | viability, T/C [24]: 15.5% | viability, T/C [25]: 22% | viability, T/C [26]: 22.4% | viability, T/C [27]: 20.7% | viability, T/C [28]: 16.6% | viability, T/C [29]: 15.9% | viability, T/C [30]: 17.2% | viability, T/C [31]: 22.5% | viability, T/C [32]: 21.6% | viability, T/C [33]: 21.3% | viability, T/C [34]: 20.1% | viability, T/C [35]: 21.7% | viability, T/C [36]: 21.4%
